pKi: −log10 of the molar value. Read-outs that look alike come from different tables or passages of the source.
Tests used:
Aurora-2 (Aurora A) = molecular target: T1, Aurora-2 (Aurora A) (Homo sapiens, UniProt O14965); experiment: Aurora-2 (Aurora A) Inhibition Assay (coupled enzyme assay); format: biochemical
T1 sequence (O14965 1-403): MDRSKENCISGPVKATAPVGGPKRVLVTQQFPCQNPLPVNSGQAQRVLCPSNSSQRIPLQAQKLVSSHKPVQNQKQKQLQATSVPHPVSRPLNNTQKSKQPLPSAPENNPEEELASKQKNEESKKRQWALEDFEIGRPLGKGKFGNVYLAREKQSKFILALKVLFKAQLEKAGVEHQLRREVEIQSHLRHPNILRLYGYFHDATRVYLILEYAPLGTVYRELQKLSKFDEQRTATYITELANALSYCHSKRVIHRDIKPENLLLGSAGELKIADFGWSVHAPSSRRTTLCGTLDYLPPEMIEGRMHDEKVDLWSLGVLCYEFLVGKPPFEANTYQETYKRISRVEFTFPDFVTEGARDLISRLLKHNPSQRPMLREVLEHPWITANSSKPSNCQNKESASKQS
Experimental: Assays were carried out in a mixture of 100 mM Hepes (pH7.5), 10 mM MgCl2, 1 mM DTT, 25 mM NaCl, 2.5 mM phosphoenolpyruvate, 300 μM NADH, 30 μg/ml pyruvate kinase and 10 μg/ml lactate dehydrogenase. […] Assays were carried out at 30° C. and in the presence of 40 nM Aurora-2.
An assay stock buffer solution was prepared containing all of the reagents listed above, with the exception of Aurora-2 and the test compound of interest. […] The plate was preincubated for 10 minutes at 30° C. and the reaction initiated by addition of 10 μl of Aurora-2. Initial reaction rates were determined with a Molecular Devices SpectraMax Plus plate reader over a 10 minute time course. IC50 and Ki data were calculated from non-linear regression analysis using the Prism software package (GraphPad Prism version 3.0cx for Macintosh, GraphPad Software, San Diego Calif., USA).

Aurora-1 (Aurora B) = Aurora-1 (Aurora B) (Homo sapiens, UniProt Q96GD4); experiment: Aurora-1 (Aurora B) Inhibition Assay (Radiometric); format: biochemical
Experimental: An assay buffer solution was prepared which consisted of 25 mM HEPES (pH 7.5), 10 mM MgCl2, 0.1% BSA and 10% glycerol. […] To 22 μL of the Aurora-B solution, in a 96-well plate, was added 2 μl of a compound stock solution in DMSO and the mixture allowed to equilibrate for 10 minutes at 25° C. The enzyme reaction was initiated by the addition of 16 μl stock [γ-^33P]-ATP solution (˜20 nCi/μL) prepared in assay buffer, to a final assay concentration of 800 μM. The reaction was stopped after 3 hours by the addition of 16 μL 500 mM phosphoric acid and the levels of ^33P incorporation into the peptide substrate were determined by the following method.
A phosphocellulose 96-well plate (Millipore, Cat no. MAPHNOB50) was pre-treated with 100 μL of a 100 mM phosphoric acid prior to the addition of the enzyme reaction mixture (40 μL). The solution was left to soak on to the phosphocellulose membrane for 30 minutes and the plate subsequently washed four times with 200 μL of a 100 mM phosphoric acid. […] Levels of non-enzyme catalyzed background radioactivity were determined by adding 16 μL of the 500 mM phosphoric acid to control wells, containing all assay components (which acts to denature the enzyme), prior to the addition of the [γ-^33P]-ATP solution. Levels of enzyme catalyzed ^33P incorporation were calculated by subtracting mean background counts from those measured at each inhibitor concentration. […] Ki values were calculated from initial rate data by non-linear regression using the Prism software package (Prism 3.0, Graphpad Software, San Diego, Calif.).

tumor = experiment: Animal model of tumor growth inhibition, once a week dosing; format: in vivo
From the text: Applicants have discovered that for compounds that display a […] binding mechanism with slow, tight-binding kinetics, the Ki* value is a much better predictive tool for cell potency than is Ki. In some embodiments, such compounds have a strong pharmacodynamic profile, resulting in long term cell activity that would allow for shorter dosing regimens in vivo. A typical dosing regimen for Aurora inhibitors in animal models is, e.g., at least once a day dosing. In one embodiment, applicants' invention allows for selecting compounds that may be dosed less than once a day.

Sequence of Aurora-1 (Aurora B) (Q96GD4 whole entry): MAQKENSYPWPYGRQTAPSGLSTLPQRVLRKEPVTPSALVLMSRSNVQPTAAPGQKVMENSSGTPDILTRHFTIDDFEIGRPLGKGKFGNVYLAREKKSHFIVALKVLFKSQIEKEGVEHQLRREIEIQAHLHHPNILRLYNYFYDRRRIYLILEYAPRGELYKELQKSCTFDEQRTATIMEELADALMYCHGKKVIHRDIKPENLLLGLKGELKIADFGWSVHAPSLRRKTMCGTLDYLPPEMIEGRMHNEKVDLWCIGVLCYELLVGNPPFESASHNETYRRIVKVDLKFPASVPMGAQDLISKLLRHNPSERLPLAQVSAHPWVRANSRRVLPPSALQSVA

Compound	pKi (Aurora-2 (Aurora A); read-out: Aurora A Ki)	pKi (Aurora-1 (Aurora B))	pKi (Aurora-2 (Aurora A))	tumor growth inhibition (tumor)
CCC(=O)Nc1ccc(Sc2nc(NCCN3CCCCC3)cc(Nc3cc(C)n[nH]3)n2)cc1 [Compound 1]	8.05	7.46	–	–
CCC(=O)Nc1ccc(Sc2nc(Nc3cc(C)n[nH]3)cc(N3CCN(C(C)(C)C)CC3)n2)cc1 [Compound 2]	–	7.95	8.67	very good tumor growth inhibition
Cc1cc(Nc2cc(N3CCN(C(C)(C)C)CC3)nc(Sc3ccc(NC(=O)C4CC4)cc3)n2)[nH]n1 [Compound 3]	8.67	7.65	–	–
COc1cccc(Sc2nc(NC3=NN=C(C)C3)cc(N3CCN(C(C)(C)C)CC3)n2)c1 [Compound 4]	8.07	6.84	–	–
Cc1cc(Nc2cc(N3CCN(C(C)(C)C)CC3)nc(Sc3ccc(NC(=O)C4CCCC4)cc3)n2)[nH]n1 [Compound 5]	8.46	7.67	–	–
C#CC(C)(C)N1CCN(c2cc(Nc3cc(C)n[nH]3)nc(Sc3ccc(NC(=O)CC)cc3)n2)CC1 [Compound 6]	8.74	7.85	–	–
CCC(=O)Nc1ccc(Sc2nc(Nc3cc(C)n[nH]3)cc(N3CCC(N4CCCC4)CC3)n2)cc1 [Compound 7]	8.34	7.30	–	–
CCC(=O)Nc1ccc(Sc2nc(Nc3cc(C)n[nH]3)cc(N3CCN(C(C)(C)CO)CC3)n2)cc1 [Compound 8]	8.56	7.81	–	–
CCC(=O)Nc1ccc(Sc2nc(Nc3cc(C)n[nH]3)cc(N3CCN(C(C)(C)CC)CC3)n2)cc1 [Compound 9]	8.59	7.71	–	–
CCC(=O)Nc1ccc(Sc2nc(Nc3cc(C)n[nH]3)cc(N3CCN(C(C)(C)CF)CC3)n2)cc1 [Compound 10]	8.70	7.65	–	–
CCC(=O)Nc1ccc(Sc2nc(Nc3cc(C)n[nH]3)cc(N3CCC(NC(C)(C)C)CC3)n2)cc1 [Compound 11]	8.11	7.55	–	–
Cc1cc(Nc2cc(N3CCC3)nc(Sc3ccc(NC(=O)CC(F)(F)F)cc3)n2)n[nH]1 [Compound 12]	9.15	8.14	–	–
Cc1cc(Nc2cc(N3CCC3)nc(Sc3ccc(NC(=O)c4ccccc4C(F)(F)F)cc3)n2)[nH]n1 [Compound 13]	9.42	8.35	–	–
CCC(=O)Nc1ccc(Sc2nc(Nc3cc(C)n[nH]3)cc(N3CCC(O)(C(C)(C)C)CC3)n2)cc1 [Compound 14]	9.23	7.87	–	–
CCC(=O)Nc1ccc(Sc2nc(Nc3cc(C)n[nH]3)cc(N3CCC(N(C)C(C)(C)C)CC3)n2)cc1 [Compound 15]	8.60	7.50	–	–
CCC(=O)Nc1ccc(Sc2nc(Nc3cc(C)n[nH]3)cc(N3CC[C@H](N4CCCC4)C3)n2)cc1 [Compound 16]	8.24	7.01	–	–
CCC(=O)Nc1ccc(Sc2nc(Nc3cc(C)n[nH]3)cc(N3CCC4(CCN(C)C4)CC3)n2)cc1 [Compound 17]	8.69	7.22	–	–
CCC(=O)Nc1ccc(Sc2nc(Nc3cc(C4CC4)n[nH]3)cc(N3CCC(N4CCCC4)CC3)n2)cc1 [Compound 18]	8.56	7.84	–	–

Compound	pKi (Aurora-2 (Aurora A); read-out: Aurora A Ki)	pKi (Aurora-1 (Aurora B))	pKi (Aurora-2 (Aurora A))	tumor growth inhibition (tumor)
CCC(=O)Nc1ccc(Sc2nc(Nc3cc(C)n[nH]3)cc(N3CC4CN(C(C)C)CC4C3)n2)cc1 (stereo not drawn) [Compound 19]	8.27	7.46	–	–
CCC(=O)Nc1ccc(Sc2nc(Nc3cc(C)n[nH]3)cc(N3CC(O)(C(C)(C)C)C3)n2)cc1 [Compound 20]	9.46	8.35	–	–
CCC(=O)Nc1ccc(Sc2nc(Nc3cc(C)n[nH]3)cc(N3CC(O)(C4CC4)C3)n2)cc1 [Compound 21]	9.41	–	–	–
CCC(=O)Nc1ccc(Sc2nc(Nc3cc(C)n[nH]3)cc(N3CC(C)(N4CCCC4)C3)n2)cc1 [Compound 22]	9.17	8.30	–	–
CCC(=O)Nc1ccc(Sc2nc(Nc3cc(C)n[nH]3)cc(N3CC=C(C(C)(C)C)CC3)n2)cc1 [Compound 23]	9.28	6.21	–	–
CCC(=O)Nc1ccc(Sc2nc(Nc3cc(C)n[nH]3)cc(N3CCC(O)(c4cc(F)ccc4OC)CC3)n2)cc1 [Compound 24]	9.44	6.85	–	–
CCC(=O)Nc1ccc(Sc2nc(Nc3cc(C)n[nH]3)cc(N3CCC(C#N)(c4ccccc4OC)CC3)n2)cc1 [Compound 25]	9.05	6.64	–	–
CCC(=O)Nc1ccc(Sc2nc(Nc3cc(C)n[nH]3)cc(N3CC4(C3)OCC4(C)C)n2)cc1 [Compound 26]	9.13	7.60	–	–
CCC(=O)Nc1ccc(Sc2nc(Nc3cc(C)n[nH]3)cc(N3CCC(O)(C(C)(C)C)C3)n2)cc1 (stereo not drawn) [Compound 27]	9.46	6.99	–	–
CCC(=O)Nc1ccc(Sc2nc(Nc3cc(C)n[nH]3)cc(N3CC(C)(OC(C)C)C3)n2)cc1 [Compound 28]	8.87	7.84	–	–
CCC(=O)Nc1ccc(Sc2nc(Nc3cc(C)n[nH]3)cc(N3CC(O)(C(C)C)C3)n2)cc1 [Compound 30]	8.94	–	–	–
Cc1cc(Nc2cc(N3CC(O)(C4CC4)C3)nc(Sc3ccc(NC(=O)C4CC4)cc3)n2)n[nH]1 [Compound 31]	9.06	8.15	–	–
Cc1cc(Nc2cc(N3CCC(F)C3)nc(Sc3ccc(NC(=O)CC(F)(F)F)cc3)n2)[nH]n1 (stereo not drawn) [Compound 32]	9.46	8.40	–	–
Cc1cc(Nc2cc(N3CCC(N4CCCC4)CC3)nc(Sc3ccc4ccccc4c3)n2)[nH]n1 [Compound 33]	8.16	7.19	–	–
Cc1cc(Nc2cc(N3CC(O)(C4CC4)C3)nc(Sc3ccc4ccccc4c3)n2)n[nH]1 [Compound 34]	9.20	7.29	–	–
Cc1cc(Nc2cc(N3CC(F)(C4CC4)C3)nc(Sc3ccc(NC(=O)CC(F)(F)F)cc3)n2)[nH]n1 [Compound 35]	9.45	8.17	–	–
CCOc1ccc(Sc2nc(Nc3cc(C)n[nH]3)cc(N3CCN(C(C)(C)C)CC3)n2)cc1 [Compound 36]	8.28	7.34	–	–

— patent US20140141099A1, “DRUG DISCOVERY METHODS” (Vertex Pharmaceuticals Incorporated, priority 2007, published 2014)
